Tested on: anti-equol monoclonal antibody composition
Experiment: Evaluating cross-reactivity of anti-equol monoclonal antibody composition
Format: binding, mouse
Details: for Cross-reactivity with S-equol (%): S-equol as 100%; for S-equol concentration calculated from the calibration curve: reacted with the antibody, read from S-equol calibration curve
Procedure: The cross-reactivity rate can be obtained as follows for example. First, a calibration curve is prepared using S-equol. Compounds including S-equol are prepared with concentrations of 1 μM and 10 μM, and reacted with the antibody at each concentration, and the S-equol concentration is calculated from the calibration curve. For example, if 10 μM of daidzein is added and detected at a concentration of 10 μM based on the calibration curve the cross-reactivity is given as 100%, while if it is detected at a concentration of 1 μM the cross-reactivity is given as 10%, and if it is detected at a concentration of 0.1 μM the cross-reactivity is given as 1%. To investigate the cross-reactivity of the resulting antibody composition, reactivity to 9 kinds of compounds including S-equol (S-equol, daidzein, genistein, glycitein, ellagic acid dihydrate, catechin monohydrate, gallic acid, apigenin and DMA) was investigated. First, a calibration curve was prepared using S-equol. The 9 compounds including S-equol were prepared at concentrations of 1 μM and 10 μM, and reacted with the antibody at each concentration, and cross-reactivity was calculated from the calibration curve.

Oc1ccc([C@@H]2COc3cc(O)ccc3C2)cc1 [R-Equol, R-equol]
Cross-reactivity with S-equol (%) (compound at 1 μM): 89.55%
Cross-reactivity with S-equol (%) (compound at 10 μM): 109.59%
S-equol concentration calculated from the calibration curve (compound prepared at 1 μM): 1.20
S-equol concentration calculated from the calibration curve (compound prepared at 10 μM): 11.88

C[C@@H](C(=O)c1ccc(O)cc1O)c1ccc(O)cc1 [R—O-DMA, R—O-desmethylangolensin]
Cross-reactivity with S-equol (%) (compound at 1 μM): 0.00%
Cross-reactivity with S-equol (%) (compound at 10 μM): 0.00%
S-equol concentration calculated from the calibration curve (compound prepared at 1 μM): 0.00
S-equol concentration calculated from the calibration curve (compound prepared at 10 μM): 0.00

O=c1c(-c2ccc(O)cc2)coc2cc(O)cc(O)c12 [Genistein, genistein]
Cross-reactivity with S-equol (%) (compound at 1 μM): 0.00%
Cross-reactivity with S-equol (%) (compound at 10 μM): 0.00%
S-equol concentration calculated from the calibration curve (compound prepared at 1 μM): 0.00
S-equol concentration calculated from the calibration curve (compound prepared at 10 μM): 0.00

(+)-Catechin hydrate
Cross-reactivity with S-equol (%) (compound at 1 μM): 0.00%
Cross-reactivity with S-equol (%) (compound at 10 μM): 0.09%
S-equol concentration calculated from the calibration curve (compound prepared at 1 μM): 0.00
S-equol concentration calculated from the calibration curve (compound prepared at 10 μM): 0.01

O=c1c(-c2ccc(O)cc2)coc2cc(O)ccc12 [Daidzein, daidzein]
Cross-reactivity with S-equol (%) (compound at 1 μM): 0.00%
Cross-reactivity with S-equol (%) (compound at 10 μM): 0.00%
S-equol concentration calculated from the calibration curve (compound prepared at 1 μM): 0.00
S-equol concentration calculated from the calibration curve (compound prepared at 10 μM): 0.00

Oc1ccc([C@H]2COc3cc(O)ccc3C2)cc1 [S-Equol, S-equol]
Cross-reactivity with S-equol (%) (compound at 1 μM): 100.00%
Cross-reactivity with S-equol (%) (compound at 10 μM): 100.00%
S-equol concentration calculated from the calibration curve (compound prepared at 1 μM): 1.34
S-equol concentration calculated from the calibration curve (compound prepared at 10 μM): 10.84

COc1cc2c(=O)c(-c3ccc(O)cc3)coc2cc1O [Glycitein, glycitein]
Cross-reactivity with S-equol (%) (compound at 1 μM): 0.00%
Cross-reactivity with S-equol (%) (compound at 10 μM): 0.00%
S-equol concentration calculated from the calibration curve (compound prepared at 1 μM): 0.00
S-equol concentration calculated from the calibration curve (compound prepared at 10 μM): 0.00

O=c1oc2c(O)c(O)cc3c(=O)oc4c(O)c(O)cc1c4c23 [Ellagic acid dihydrate, ellagic acid dihydrate]
Cross-reactivity with S-equol (%) (compound at 1 μM): 0.00%
Cross-reactivity with S-equol (%) (compound at 10 μM): 0.00%
S-equol concentration calculated from the calibration curve (compound prepared at 1 μM): 0.00
S-equol concentration calculated from the calibration curve (compound prepared at 10 μM): 0.00

O=c1cc(-c2ccc(O)cc2)oc2cc(O)cc(O)c12 [Apigenin, apigenin]
Cross-reactivity with S-equol (%) (compound at 1 μM): 0.00%
Cross-reactivity with S-equol (%) (compound at 10 μM): 0.00%
S-equol concentration calculated from the calibration curve (compound prepared at 1 μM): 0.00
S-equol concentration calculated from the calibration curve (compound prepared at 10 μM): 0.00

O=C(O)c1cc(O)c(O)c(O)c1 [Gallic acid, gallic acid]
Cross-reactivity with S-equol (%) (compound at 1 μM): 0.00%
Cross-reactivity with S-equol (%) (compound at 10 μM): 0.74%
S-equol concentration calculated from the calibration curve (compound prepared at 1 μM): 0.00
S-equol concentration calculated from the calibration curve (compound prepared at 10 μM): 0.08

Reference: patent US10538580B2, “Anti-equol antibody composition and use therefor” (HEALTHCARE SYSTEMS CO., LTD., priority 2016, dated 2020)
